These results are taken from US12617783B2, “Heterocyclic GLP-1R agonists” (BIOMEA FUSION, INC., priority 2024, dated 2026).

A word on the EC50: it is the concentration at which the effect is half-maximal.

T1 sequence (P43220 24-463): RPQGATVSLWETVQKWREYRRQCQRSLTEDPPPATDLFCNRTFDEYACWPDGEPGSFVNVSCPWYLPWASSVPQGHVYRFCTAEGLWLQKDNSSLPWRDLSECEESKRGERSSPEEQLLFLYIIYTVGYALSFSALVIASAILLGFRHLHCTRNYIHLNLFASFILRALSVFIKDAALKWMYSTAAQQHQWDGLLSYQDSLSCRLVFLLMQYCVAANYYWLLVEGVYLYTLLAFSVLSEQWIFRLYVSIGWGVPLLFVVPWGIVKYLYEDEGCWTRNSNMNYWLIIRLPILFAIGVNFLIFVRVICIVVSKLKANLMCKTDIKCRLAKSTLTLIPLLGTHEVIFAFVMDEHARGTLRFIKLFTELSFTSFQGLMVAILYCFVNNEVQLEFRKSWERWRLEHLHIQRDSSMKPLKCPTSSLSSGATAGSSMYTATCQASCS

One assay has as its target T1, human GLP-1R (Homo sapiens, UniProt P43220).
T1 construct: host or cells: HEK293
Kind of assay: GLP-1R cAMP assay (Example B1a, HTRF, 30 min at room temperature). Type of assay: cell-based. Conditions: cAMP accumulation in HEK293 expressing human GLP-1R, no BETP, 30 min room temperature (Method B1a, compounds ID 1-609), Table 1; read-out: EC50. The gist of the method: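 Competitive HTRF read-out of cAMP after 30 min room-temperature stimulation, BETP absent, of human GLP-1R-HEK293 cells (1,000/well) in HEPES buffer with 500 μM IBMX and 0.1% BSA. Activation normalised to GLP-1(7-37) positive control. EC50 from 4-parameter non-linear regression.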
Take `Cc1cc(-n2nc3c(c2-n2ccn(-c4ccc5c(cnn5C)c4F)c2=O)[C@@H]2CC[C@H](C3)N2C(=O)c2cc3cc([C@H]4CCOC5(CCC5)C4)ccc3n2[C@@]2(c3noc(=O)[nH]3)C[C@@H]2C)cc(C)c1F` [Compound 426, 3-((1S,2S)-1-(2-((4S,7R)-3-(3-(4-fluoro-1-methyl-1H-indazol-5-yl)-2-oxo-2,3-dihydro-1H-imidazol-1-yl)-2-(4-fluoro-3,5-dimethylphenyl)-2,4,5,6,7,8-hexahydro-4,7-epiminocyclohepta [c]pyrazole-9-carbonyl)-5-((S)-5-oxaspiro[3.5]nonan-8-yl)-1H-indol-1-yl)-2-methylcyclopropyl)-1,2,4-oxadiazol-5(4H)-one]: the half-maximal effective concentration (EC50) worked out at 134 nM.
On to `Cc1cc(-n2nc3c(c2-n2ccn(-c4ccc5c(cnn5C)c4F)c2=O)C2CCCC(C3)N2C(=O)c2cc3cc([C@H]4CCOC(C)(C)C4)ccc3n2[C@@]2(c3noc(=O)[nH]3)C[C@@H]2C)cc(C)c1F` (stereo partly drawn) [Compound 427, 3-((1S,2S)-1-(5-((S)-2,2-dimethyltetrahydro-2H-pyran-4-yl)-2-(3-(3-(4-fluoro-1-methyl-1H-indazol-5-yl)-2-oxo-2,3-dihydro-1H-imidazol-1-yl)-2-(4-fluoro-3,5-dimethylphenyl)-4,5,6,7,8,9-hexahydro-2H-4,8-epiminocycloocta [c]pyrazole-10-carbonyl)-1H-indol-1-yl)-2-methylcyclopropyl)-1,2,4-oxadiazol-5 (4H)-one], for which the EC50 turned out to be 77.1 nM.
Consider `CCS(=N)(=O)c1ccc(-n2ccn(-c3c4c(nn3-c3cc(C)c(F)c(C)c3)C[C@H]3CC[C@@H]4N3C(=O)c3cc4cc([C@H]5CCOC(C)(C)C5)ccc4n3[C@@]3(c4noc(=O)[nH]4)C[C@@H]3C)c2=O)c(F)c1` (stereo partly drawn) [Compound 428, 3-((1S,2S)-1-(5-((S)-2,2-dimethyltetrahydro-2H-pyran-4-yl)-2-((4S,7R)-3-(3-(4-(ethylsulfonimidoyl)-2-fluorophenyl)-2-oxo-2,3-dihydro-1H-imidazol-1-yl)-2-(4-fluoro-3,5-dimethylphenyl)-2,4,5,6,7,8-hexahydro-4,7-epiminocyclohepta [c]pyrazole-9-carbonyl)-1H-indol-1-yl)-2-methylcyclopropyl)-1,2,4-oxadiazol-5(4H)-one], for which the 50% effective concentration (EC50) amounted to 94.8 nM.
Consider `Cc1cc(-n2nc3c(c2-n2ccn(-c4ccn5c(cc(=O)n5C)c4F)c2=O)[C@@H]2CC[C@H](C3)N2C(=O)c2cc3cc([C@H]4CCOC(C)(C)C4)ccc3n2[C@@]2(c3noc(=O)[nH]3)C[C@@H]2C)cc(C)c1F` [Compound 429, 3-((1S,2S)-1-(5-((S)-2,2-dimethyltetrahydro-2H-pyran-4-yl)-2-((4S,7R)-3-(3-(4-fluoro-1-methyl-2-oxo-1,2-dihydropyrazolo[1,5-a]pyridin-5-yl)-2-oxo-2,3-dihydro-1H-imidazol-1-yl)-2-(4-fluoro-3,5-dimethylphenyl)-2,4,5,6,7,8-hexahydro-4,7-epiminocyclohepta [c]pyrazole-9-carbonyl)-1H-indol-1-yl)-2-methylcyclopropyl)-1,2,4-oxadiazol-5(4H)-one], for which the EC50 was determined as 12.2 nM.
Same read-out and setting: under `Cc1cc(-n2nc3c(c2-n2ccn(-c4ccc5c(cnn5C)c4F)c2=O)[C@H]2CCC[C@@H](C3)N2C(=O)c2cc3cc([C@H]4CCOC(C)(C)C4)ccc3n2[C@@]2(c3noc(=O)[nH]3)C[C@@H]2C)cc(C)c1F` [Compound 430, 3-((1S,2S)-1-(5-((S)-2,2-dimethyltetrahydro-2H-pyran-4-yl)-2-((4R,8S)-3-(3-(4-fluoro-1-methyl-1H-indazol-5-yl)-2-oxo-2,3-dihydro-1H-imidazol-1-yl)-2-(4-fluoro-3,5-dimethylphenyl)-4,5,6,7,8,9-hexahydro-2H-4,8-epiminocycloocta [c]pyrazole-10-carbonyl)-1H-indol-1-yl)-2-methylcyclopropyl)-1,2,4-oxadiazol-5 (4H)-one] stands not below 10000 nM.

Still in this assay, the particulars now being: text to Table 1d, bridge atoms configured out of the plane or toward the reader.
In the case of `Cc1cc(-n2nc3c(c2-n2ccn(-c4ccc5c(cnn5C)c4F)c2=O)[C@H]2CCC[C@@H](C3)N2C(=O)c2cc3cc([C@H]4CCOC(C)(C)C4)ccc3n2[C@@]2(c3noc(=O)[nH]3)C[C@@H]2C)cc(C)c1F` [Compound 430, 3-((1S,2S)-1-(5-((S)-2,2-dimethyltetrahydro-2H-pyran-4-yl)-2-((4R,8S)-3-(3-(4-fluoro-1-methyl-1H-indazol-5-yl)-2-oxo-2,3-dihydro-1H-imidazol-1-yl)-2-(4-fluoro-3,5-dimethylphenyl)-4,5,6,7,8,9-hexahydro-2H-4,8-epiminocycloocta [c]pyrazole-10-carbonyl)-1H-indol-1-yl)-2-methylcyclopropyl)-1,2,4-oxadiazol-5 (4H)-one], the potency entry is given as “little or no potency”.
